Earlier results in patent US5198463A, “Oxytocin antagonists” (Merck & Co., Inc., priority 1992, dated 1993).

Test system: Chinese cabbage seedlings
Settings: reported by T. Sassa et al.

Structure (SMILES): COc1c(C(O)CC(C)C)ccc2c1C(=O)OCc1cc(C)cc(O)c1O2 (stereo not shown) [Compound IA, penicillide]
- growth of Chinese cabbage seedlings: markedly inhibits the growth
